Assay results: article PMC7246635, “Structure–Activity Relationship of RGD-Containing Cyclic Octapeptide and αvβ3 Integrin Allows for Rapid Identification of a New Peptide Antagonist” (International Journal of Molecular Sciences, 2020)
Where two headings read alike, the source gives them in different places. Bridge positions count the residues as written; N and C are the ends. Square brackets hold non-standard residues; d marks the D form. Ends that are not written are not given here. Peptide text beside a SMILES is read from it.

Columns and labels:
αvβ3 integrin [1] = biological target: T1, αvβ3 integrin (Homo sapiens, UniProt P05106+P06756); details: cited from earlier work
T1 construct: expressed in transfected cells; host or cells: K562 human leukemia cells (ATCC) transfected with αvβ3 integrin
Source text: Targeting tumor cells or tumor vasculature by RGD-based strategies is a promising approach for delivering anticancer drugs or contrast agents for cancer therapy and diagnosis. RGD-based strategies include RGD peptide or peptidomimetic drugs, RGD-conjugates, and the grafting of the RGD peptide or peptidomimetic, as targeting ligand, at the surfa ... || (+ 4 further places)

α5β1 = details: integrin expressed on K562 cells; cited from earlier work
Source text: (§1) Structure–activity relationship between LXW peptides and αvβ3 LXW analogs are a new category of RGD-containing cyclopeptides that binds specifically to αvβ3 integrin [7, 8]. The LXW analogs were designed and screened using OBOC combinatorial technology. Unlike other RGD cyclopeptide antagonists (i.e., cilengitide), LXW analogs are extended circular structures with a disulfide bond formed between two cysteines in the peptide sequence (cGRGDdXc). D-configuration of two cysteines in these analogs is essential for the antagonistic activity, which can force the cyclopeptide to adopt ...

αIIbβ3 = details: integrin expressed on K562 cells; cited from earlier work
Source text: as §1

αvβ3 = details: integrin expressed on K562 cells; cited from earlier work
Source text: as §1

αvβ5 = details: integrin expressed on K562 cells; cited from earlier work
Source text: as §1

αvβ3 integrin [2] = biological target: T1, αvβ3 integrin; assay: Competitive binding assay by flow cytometry: competition with 1 μM biotinylated LXW7 binding to αvβ3-K562 cells
Protocol: To further verify our in silico screening results, we examined the binding of new LXW-analogous peptides to αvβ3 integrin in αvβ3-K562 cells. LXZ2 with DNTL as the X7 residue (Figure 6 left) was arbitrarily chosen and tested through flow cytometry for competing with 1 μM biotinylated LXW7 binding to αvβ3 integrin. […] The IC50 of the peptide inhibiting biotinylated LXW7 binding with K562/αvβ3+ cells was determined (Figure 6 right).
Figure 6 (A) Chemical structure of LXZ2; (B) Competitive binding assay. […] Positive control (cyan), cells were treated with 1μM biotinylated LXW7 and streptavidin-PE successively, and measured with flow cytometry. Negative control (red) represents cells without treatment of biotinylated LXW7. (C) IC50 measurement of LXW7 and LXZ2. The IC50s were determined with competitive binding assay by using a series of concentrations of LXW7 or LXZ2 competing with 1 μM biotinylated LXW7 binding to αvβ3-K562 cells. TEXT PRINTED IN THE PICTURE: (C) LXW7: IC50(μM): 1.53 | (C) LXZ2: IC50(μM): 0.31
The human leukemia cancer cells (K562, ATCC, Manassas, VA, USA) transfected with αvβ3-integrin were grown in the RPMI1640 medium and used for the assay as previously described. […] The samples were washed with 1 mL PBS containing 1% FBS for three times, then incubated with a 1:500 dilution of streptavidin-PE (1 mg/mL) for 30 min on ice followed by a single wash with 1 mL of PBS containing 1% FBS. Finally, the samples were analyzed via flow cytometry (Coulter XL-MCL). To measure the half-maximal inhibitory concentration (IC50) of the peptides, various diluted peptide solutions were mixed with 1.0 μM biotinylated LXW7, then incubated with cells, and followed by streptavidin-PE incubation. The samples were run through flow cytometer and Mean Fluorescence Intensity was decided for each individual sample. The IC50s were calculated from each sample based on the readings.

αvβ3 integrin [3] = details: cited from earlier work
Source text: In our current study, 20 new LXW analogs were predicted via in silico screening with a high binding affinity to αvβ3 integrin. […] These X7 amino acids can be classified into two groups according to their side-chain structures—cyclic (total 13) and non-cyclic (aliphatic, total 7). […] Among the cyclic amino acids, the aromatic (mainly polycyclic excepted DPH ...

[4] = concentration of peptide required for inhibition of 0.5 µmoL/L biotinylated LXW7 binding to K562/αvβ3+ cells by half, Table 1
[5] = known IC50s from previous in vitro screening, binding to αvβ3 integrin, Table 3
[6] = series of peptide concentrations competing with 1 μM biotinylated LXW7 binding to αvβ3-K562 cells, flow cytometry, streptavidin-PE, PBS, 10% FBS, 1 mM MnCl2, 30 min on ice, Figure 6C, read-out: IC50

cGRGDd-DNal1-c-NH2 (disulfide) [LXW64, cyclic octapeptide cGRGDd-DNal1-c-NH2 with 3-(1-naphthyl)-D-alanine at X7]
higher binding affinity than LXW7 (αvβ3 integrin [1]; binding affinity to αvβ3 relative to LXW7): 6 fold
IC50 (αvβ3 integrin [1]; [4]): 70 nM
IC50 (αvβ3 integrin [1]; [5]): 70 nM
binding to α5β1 (α5β1): weak or no binding
binding to αIIbβ3 (αIIbβ3): weak or no binding
binding with αvβ3 (αvβ3): significant positive binding
binding to αvβ5 (αvβ5): weak or no binding

N=C(N)NCCC[C@@H]1NC(=O)CNC(=O)[C@H](N)CSSC[C@H](C(N)=O)NC(=O)[C@@H](Cc2c3ccccc3cc3ccccc23)NC(=O)[C@@H](CC(=O)O)NC(=O)[C@H](CC(=O)O)NC(=O)CNC1=O [LXZ2]
binding affinity compared with LXW7 in competitive binding (αvβ3 integrin [2]; 5 μM peptide competes with 1 μM biotinylated LXW7 binding to αvβ3-K562 cells, flow cytometry, Figure 6B): stronger binding affinity than the first lead—LXW7
IC50 (αvβ3 integrin [2]; converted, referred to LXW7 in Table 3, read-out: converted IC50): 90 nM
IC50 (αvβ3 integrin [2]; [6]): 310 nM

CGRGDdvC-NH2 (disulfide) (CGRGD[dD][dV]C-NH2; disulfide 1-8; N-terminus assumed; SMILES CC(C)[C@H]1NC(=O)[C@@H](CC(=O)O)NC(=O)[C@H](CC(=O)O)NC(=O)CNC(=O)[C@H](CCCNC(=N)N)NC(=O)CNC(=O)[C@@H](N)CSSC[C@@H](C(N)=O)NC1=O) [LXW11, LXW7 isomer CGRGDdvC-NH2 with two L-cysteines]
IC50 (αvβ3 integrin [1]; [4]): > 20000 nM
IC50 (αvβ3 integrin [1]; [5]): > 20000 nM

cilengitide
IC50 (αvβ3 integrin [3]): 250 nM

CC(C)[C@H]1NC(=O)[C@@H](CC(=O)O)NC(=O)[C@H](CC(=O)O)NC(=O)CNC(=O)[C@H](CCCNC(=N)N)NC(=O)CNC(=O)[C@H](N)CSSC[C@H](C(N)=O)NC1=O [LXW7] (H-[dC]GRGD[dD][dV][dC]-NH2; disulfide 1-8)
IC50 (αvβ3 integrin [2]; [6]): 1530 nM

LXW26: LXW analog with D-Ile as X amino acid (CGRGDDIC; cyclic via D-Cys1-D-Cys8 disulfide; D-Cys1, D-Asp6, D-Ile7, D-Cys8; C-terminal amide (template cGRGDdXc-NH2, X = D-Ile))
IC50 (αvβ3 integrin [1]; [5]): 1840 nM
